Assay [1] has as its system incision wounds of rats. In words: Wound healing effect, tension stiffness method. Particulars: for Tensile Strength: 1 wt % in ethanol, 0.5 ml/cm^2 once every day for 6 days; for Strength Rate: relative to control group (ethanol only) taken as 100%. Type of assay: in vivo. Here is the method: A wound healing effect was tested with respect to 5-week-old male rats by using a tension stiffness method that reflects the quality and quantity of restoration from wounds. The backs of the rats were shaved and wounded with a scalpel, and then the incision was sutured. Sample solutions were prepared by extracting 8-hydroxybergapten and prangenidin in accordance with Examples 2 and 3, and dissolving them in ethanol at 1 wt %, individually. The sample solutions were injected into the incisions at 0.5 ml/cm^2 once every day for 6 days. After 6 days, the rats were sacrificed and the skin around the wounds was removed. Three skin specimens of 1 cm-wide skin flakes crossing the incision line were prepared for each individual and their tensile strength (g/cm) was measured by using a rheometer. The measured tensile strength was used as an index of the strength of the generated collagen fiber. The tensile strength of the control group, to which only ethanol without the sample therein was applied, was taken as 100% and the increase in the tensile strength was measured as a relative strength thereto.

In assay [2] the test system is ear edema of hairless mice. As to the kind of experiment: Anti-inflammatory effect, ear swelling method (arachidonic acid). Type of assay: in vivo. The note with it: 1 wt % in ethanol, 20 μl/ear, 2 mg/ear arachidonic acid, test ear vs controlled ear, group of 3. Here is the method:
The anti-inflammatory effect was evaluated in an ear swelling method by using 6-week-old hairless mice. The left ears of the hairless mice were used as controlled areas to be compared with the test areas, and the right ears of the hairless mice were used as the test areas. Prior to the test, both ears of all the hairless mice were measured three times. Sample solutions were prepared by extracting xanthotoxol, 8-hydroxybergapten, and prangenidin in accordance with […] and dissolving them in ethanol at 1 wt %, individually. Then, 20 μl/ear sample solutions were applied to the right ears of the hairless mice, and 20 μl/ear of ethanol was applied to the left ear thereof. An hour later, 2 mg/ear of arachidonic acid was applied to both ears of the hairless mice. After another hour had passed, the extent of ear edema was measured by using a micrometer, three times. Also, for comparison purposes, the anti-inflammatory effect of indomethacine, which is generally known as an anti-inflammatory agent, was measured with the same method.
The anti-inflammatory effect was a ratio of a thickness of an ear in the test area to the thickness of an ear in the controlled area. It was calculated based on the following Equation 1 and presented as a damage rate.
Damage rate (%)=(thickness of ear in test area/thickness of ear in controlled area)×100 Equation 1

In assay [3] the test system is skin wrinkles of hairless mice. In words: Anti-wrinkle effect on hairless mice with light-induced skin wrinkles. It counts as in vivo. Particulars: 5 mg/ml in 1,3-butyleneglycol, treated 6 weeks, group of 10. The method, then:
The anti-wrinkle effects of xanthotoxol, 8-hydroxybergapten, and prangenidin were tested with respect to 6-week-old hairless mice having skin wrinkles caused by radiating light. Samples were prepared by extracting xanthotoxol, 8-hydroxybergapten, and prangenidin in accordance with Examples 1 through 3 and dissolving them in 1,3-butyleneglycol to thereby prepare 5 mg/ml sample solutions.
The skin wrinkles were caused by radiating light of 2 Minimum Erythema Dose (MED) to hairless mice with a solar simulator, three days a week for 10 weeks. Then, the improvement was assayed based on quality with respect to a control group of hairless mice treated with 1,3-butyleneglycol and test groups of hairless mice treated with the 5 mg/ml samples for 6 weeks.
The extent of wrinkle improvement was determined with the naked bare eye and by photographing the areas treated with the samples. The test groups and the control group were compared and the result was determined in three steps: no improvement; some improvement; and remarkable improvement.

Assay [4] has as its system human fibroblasts. As to the kind of experiment: Collagen synthesis effect in human fibroblast culture (PICP EIA Kit). It counts as cell-based. Particulars: for Quantity of Synthesized Collagen: cultured one day, 450 nm, n=6; for Increase Rate: relative ratio to collagen generation of control group. The method, then:
The collagen synthesis effect of Xanthotoxol was tested by adding Xanthotoxol to a culture broth for human fibroblasts. The quantity of the synthesized collagen was assayed by using a Procollagen Type I C-Peptide Enzyme ImmunoAssay (PICP EIA) Kit.
Xanthotoxol solution aliquots having final concentrations of 0.5 μg/ml, 1 μg/ml, 2 μg/ml, 5 μg/ml, and 10 μg/ml were added to a culture media for human fibroblasts, and the fibroblasts were cultured for one day. The culture broth of each concentration was taken out and the quantity of synthesized collagen was measured with a spectrophotometer at 450 nm by using the PICP EIA Kit.
To compare the effect of collagen synthesis, the human fibroblasts were cultured in a culture medium to which no extra element was added (i.e., a control group) and in a culture medium to which vitamin C having a final concentration of 52.8 μg/ml was added, and the quantity of synthesized collagen was measured with respect to the two samples with the same method as above.
The quantity of generated collagen was measured by using an ultraviolet ray (UV) spectrophotometer, and the increase rate of collagen generation was calculated in a relative ratio with respect to the collagen generation quantity of the control group.
The quantity of synthesized collagen and the increase rate of collagen were measured with the same method as in Experimental Example 1, except that 8-hydroxybergapten was used instead of xanthotoxol.
The quantity of synthesized collagen and the increase rate of collagen were measured with the same method as in Experimental Example 1, except that prangenidin was used instead of xanthotoxol.

Assay [5] is described as follows: Antioxidative effect in the DPPH scavenging method. The note with it: 30 minutes, 517 nm. Here is the method:
The antioxidative effects of 8-hydroxybergapten and prangenidin were measured by using 1,1-diphenyl-2-picrylhydrazyl (DPPH). The radical scavenging activity of each sample was calculated by measuring an optical density (O.D.) at 517 nm with a spectrophotometer. Sample solutions were prepared by extracting samples, i.e., 8-hydroxybergapten and prangenidin, in accordance with the methods of Examples 2 and 3 and mixing the samples in concentrations of 3 μg/ml, 5 μg/ml, 10 μg/ml, 12 μg/ml, 50 μg/ml, 80 μg/ml, and 100 μg/ml, individually. Then, experimental solutions were prepared by mixing the 500 μl aliquots of the tested sample solutions with 500 μl of a 1.5×10^−4 M DPPH methanolic solution. The quantity of DPPH remaining in each experimental solution was measured 30 minutes after the preparation of experimental solutions by using the spectrophotometer at 517 nm. In order to subtract the inherent optical densities of the samples from the measurement values of the experimental solutions, the optical densities of the sample solutions of the same concentrations were also measured at 517 nm. A control solution was prepared by mixing 500 μl of a 1.5×10^−4 M DPPH methanolic solution with 500 μl of a methanol solution and using the mixture 30 minutes after the preparation. The radical scavenging activity of each sample was calculated based on the following Equation 2.
To determine the radical scavenging activity of each sample, a coefficient of correlation (R), which is a value in connection with the radical scavenging activity, was obtained, and an IC50, a value that scavenges DPPH by 50%, was calculated. Also, in order to compare the antioxidative effects, the same experiment was carried out with respect to vitamin C.
(The DPPH test is a chemical assay of radical scavenging.)

Converted amounts (≈) assume the structure as drawn. “And” between values parts separate entries of the source, which are not always exact repeats. Equal values may be shown once.

Consider `COc1c2ccoc2c(O)c2oc(=O)ccc12` [8-Hydroxybergapten, 5-benzofuranacrylic acid and 6,7-dihydroxy-4-methoxy-, delta-lactone], for which, in assay [1], the “Tensile Strength” value was determined as 680 g/cm and the “Strength Rate” value turned out to be 124%. In addition, the “Damage Rate” value in assay [2] stood at 45%. For the same compound, in assay [3], the “No Improvement (number of mice)” value was 0, the “Remarkable Improvement (number of mice)” value is 6 and the “Some Improvement (number of mice)” value came to 4. Also, in assay [4] (0.5 μg/ml), the “Quantity of Synthesized Collagen” value stood at 1.590 ± 0.102 Abs and the “Increase Rate” value turned out to be 121.4%. Besides, in assay [4] (1.0 μg/ml), the “Quantity of Synthesized Collagen” value is given as 1.876 ± 0.097 Abs and the “Increase Rate” value was determined as 143.2%. In addition, in assay [4] (2.0 μg/ml), the “Quantity of Synthesized Collagen” value was 1.949 ± 0.111 Abs and the “Increase Rate” value is 148.8%. Moreover, in assay [4] (5.0 μg/ml), the “Quantity of Synthesized Collagen” value was found to be 1.953 ± 0.132 Abs and the “Increase Rate” value was found to be 149.1%. Also, in assay [4] (10.0 μg/ml), the “Quantity of Synthesized Collagen” value amounted to 2.008 ± 0.129 Abs and the “Increase Rate” value is given as 153.3%. Besides, the “IC 50 (scavenges DPPH by 50%)” value in assay [5] amounted to 20.3 µg/mL (≈ 87.4 µM).

`COc1ccc2c(c1)c(CC(=O)O)c(C)n2C(=O)c1ccc(Cl)cc1` [Indomethacine, indomethacine, reference compound]: the “Damage Rate” value in assay [2] amounted to 51%.

As for `CC(C)=CCc1c2ccoc2c(O)c2oc(=O)ccc12` [Prangenidin, 5-Benzofuranacrylic acid, 6,7-dihydroxy-4-(3-methyl-2-butenyl)-delta-lactone], in assay [1], the “Tensile Strength” value stood at 663 g/cm and the “Strength Rate” value turned out to be 121%. Besides, the “Damage Rate” value in assay [2] was found to be 40%. In addition, in assay [3], the “No Improvement (number of mice)” value is listed as 1, the “Remarkable Improvement (number of mice)” value came to 4 and the “Some Improvement (number of mice)” value stood at 5. Besides, in assay [4] (0.5 μg/ml), the “Quantity of Synthesized Collagen” value was determined as 1.537 ± 0.099 Abs and the “Increase Rate” value is 115.6%. In addition, in assay [4] (1.0 μg/ml), the “Quantity of Synthesized Collagen” value was 1.778 ± 0.121 Abs and the “Increase Rate” value is reported as 133.7%. Further, in assay [4] (2.0 μg/ml), the “Quantity of Synthesized Collagen” value is reported as 1.801 ± 0.135 Abs and the “Increase Rate” value amounted to 135.4%. In assay [4] (5.0 μg/ml), the “Quantity of Synthesized Collagen” value stood at 1.813 ± 0.130 Abs and the “Increase Rate” value is recorded as 136.3%. In assay [4] (10.0 μg/ml), the “Quantity of Synthesized Collagen” value turned out to be 1.820 ± 0.204 Abs and the “Increase Rate” value worked out at 136.8%. In addition, in assay [5], the “IC 50 (scavenges DPPH by 50%)” value came to 21.6 µg/mL (≈ 79.9 µM).

On to `O=C1O[C@H]([C@@H](O)CO)C(O)=C1O` [Vitamin C, vitamin C, reference compound], for which, in assay [4] (52.8 μg/ml), the “Quantity of Synthesized Collagen” value is 1.598 ± 0.145 Abs and 1.757 ± 0.121 Abs and 1.739 ± 0.145 Abs; the “Increase Rate” value is 141.57% and 134.1% and 130.8%. Also, the “IC 50 (scavenges DPPH by 50%)” value in assay [5] was found to be 8.43 µg/mL (≈ 47.9 µM).

In the case of `O=c1ccc2cc3ccoc3c(O)c2o1` [Xanthotoxol, 8-hydroxypsoralen], in assay [1], the “Tensile Strength” value is given as 642 g/cm and the “Strength Rate” value was found to be 117%. The “Damage Rate” value in assay [2] is 42%. For the same compound, in assay [3], the “No Improvement (number of mice)” value is on record as 2, the “Remarkable Improvement (number of mice)” value stood at 3 and the “Some Improvement (number of mice)” value is reported as 5. Besides, in assay [4] (0.5 μg/ml), the “Quantity of Synthesized Collagen” value came out at 1.449 ± 0.039 Abs and the “Increase Rate” value stood at 128.36%. Further, in assay [4] (1.0 μg/ml), the “Quantity of Synthesized Collagen” value was 1.535 ± 0.078 Abs and the “Increase Rate” value is recorded as 135.94%. For the same compound, in assay [4] (2.0 μg/ml), the “Quantity of Synthesized Collagen” value worked out at 1.623 ± 0.084 Abs and the “Increase Rate” value worked out at 143.75%. In addition, in assay [4] (5.0 μg/ml), the “Quantity of Synthesized Collagen” value came out at 1.651 ± 0.130 Abs and the “Increase Rate” value was 146.24%. In assay [4] (10.0 μg/ml), the “Quantity of Synthesized Collagen” value stood at 1.657 ± 0.112 Abs and the “Increase Rate” value worked out at 146.81%. The “IC 50 (scavenges DPPH by 50%)” value in assay [5] was 24.0 µg/mL (≈ 119 µM).

The values are drawn from US20090233997A1, “COMPOSITION FOR PROMOTING SYNTHESIS OF COLLAGEN, AND COMPOSITION FOR EXTERNAL PREPARATION FOR SKIN COMPRISING THE SAME” (LG HOUSEHOLD & HEALTH CARE, LTD., priority 2003, published 2009).
